How the values were obtained:
Test in all cases: Hydrolysis of DNP coumarin esters 1-3 by Fv
Assay type in all cases: biochemical, murine
[1] = tested on: MOPC315 Fv variant Fv(Y34FL), Tyr 34L to Phe; conditions: pH 6.8
Description: (§1) FIG. 22 is a Lineweaver-Burke plot of initial rate data obtained for the hydrolysis of 1 as described in Example 6 of the Experimental section herein. Four μl of a 100-fold concentrated solution of substrate 1 in DMSO was added to the 400 μl of Fv (115 nM) in buffer A while monitoring 7-hydroxycoumarin fluorescence at 25° C. (excitation:355nm; emission: 457 nm). A standard of 7-hydroxycoumarin was added at the completion of each assay to assess quenching of coumarin fluorescence by DNP at high substrate concentrations. The buffer background rate was subtracted from the initial rates. Each point represents the average velocity of at least duplicate experiments. Factor X, Factor Xa, or Russell's viper venom had no hydrolytic activity towards 1.
(§2) The ability of wild type and mutant Fvs to hydrolyze esters 1-3 was assayed by measuring the rate of coumarin release fluorimetrically at pH 6.8 (Pollack et al. (1988) supra; Pollack (1989) supra). […] Under these conditions, Fv(Y34HL) turns over at least 11 times and still retains 44% of its activity. The loss of activity is likely due to the accumulation of the inhibitory reaction product 8. […] Ester 2 was a poor substrate (kcat (2)=0.015 min^-1); and the hydrolysis of 3 was not accelerated (kcat (3)<0.005 min^-1). […] The initial rate of hydrolysis of 1 by Fv(Y34HL) at pH 6.8 is approximately 45-fold faster than the reaction with either […] (Table 2). At pH 8.7, the reactivity of Fv(Y34HL) and Fv(315) both increase, but differentially (v[Fv(Y34HL ]/v[Fv(315)]=3.3, at 10 μM 1). Under these conditions Fv(Y34HL) catalytically hydrolyzes 1 while Fv(315) reacts stoichiometrically. The increased reactivity of Fv(315) at higher pH may be due to deprotonation of the tyrosine hydroxyl and subsequent transesterification to form a relatively stable phenol ester.

[2] = target: T1, MOPC315 Fv variant Fv(Y34HL), Tyr 34L to His (Mus musculus, UniProt P01729+P01822, Y53H); conditions: pH 6.8; SE (n = 3)
T1 construct: Antibody-derived VH was prepared by denaturing ion exchange chromatography of authentic MOPC315 Fv, obtained from pepsin digestion of purified IgA; lambda cII fusion with Factor Xa site (IleGluGlyArg) (N, cleaved yes); made in house; host or cells: VL: E. coli MZ1 (cII fusion, inclusion bodies); VH: pepsin-cleaved MOPC315 IgA from mouse ascites
T1 sequence (P01729 with tags, fused parts or gaps Y53H): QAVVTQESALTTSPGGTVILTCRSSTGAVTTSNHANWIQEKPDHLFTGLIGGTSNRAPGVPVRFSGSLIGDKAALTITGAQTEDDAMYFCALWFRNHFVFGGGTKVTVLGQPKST
T1 sequence (P01822 19-137): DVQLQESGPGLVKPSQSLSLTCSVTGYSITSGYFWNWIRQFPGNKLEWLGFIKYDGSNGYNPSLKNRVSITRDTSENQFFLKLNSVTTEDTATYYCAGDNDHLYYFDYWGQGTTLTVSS
Description: as §1, §2

[3] = target: T2, MOPC315 Fv, wild type, Fv(315) (Mus musculus, UniProt P01729+P01822); conditions: pH 6.8
T2 construct: The Fv fragment (26 kD) is a heterodimer consisting of two peptides, VH (14 kD) and VL (12 kD); made in house; host or cells: MOPC315 myeloma ascites (Balb/c mice), IgA cleaved with pepsin
T2 sequence (P01822 19-137): as above
T2 sequence (P01729 20-129): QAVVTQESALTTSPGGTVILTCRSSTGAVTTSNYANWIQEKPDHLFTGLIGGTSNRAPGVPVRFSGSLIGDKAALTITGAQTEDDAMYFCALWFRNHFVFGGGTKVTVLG
Description: as §1, §2

## O=C(CCCCNc1ccc([N+](=O)[O-])cc1[N+](=O)[O-])Oc1ccc2ccc(=O)oc2c1 [compound 1, 7-hydroxycoumarin ester of 5-(2,4-dinitrophenyl)-aminopentanoic acid]
[1]
  kcat (Table 2, Fv(Y34FL)): 0.004 min
[2]
  kcat (Table 2, Fv(Y34HL)): 0.18 ± .03 min
[3]
  kcat (Table 2, Fv(315)): 0.004 min
